Experimental data published in patent publication US12485117B2, “Compositions and methods for activating signaling through the CB1 cannabinoid receptor for treating and preventing diseases and disorders characterized by abnormal cellular accumulation of sphingolipids such as sphingomyelin” (Wylder Nation Foundation, priority 2018, dated 2025).

Key:
wt or ASMko mice = test: Acute toxicity: in-life observations for 48 hours after a single oral dose; assay type: in vivo, mouse; conditions: 48 hours after single oral dose, any of the doses (0.1, 1, 5 mg/kg)
Method: To that end, a toxicity assessment of oral PF-04457845 treatment in AMSko mice was performed to determine the toxicity in liver and brain of single doses of PF-04457845 administered by oral gavage at different concentration.
(§1) We divided wt and ASMko mice of 4.5 months of age in six experimental groups: ASMko control (n=3), ASMko low dose (n=3), ASMko intermediate dose (n=3), ASMko high dose (n=3), wt control (n=3), wt high dose (n=3). PF-04457845, provided as powder, was dissolved in 0.9% NaCl and administered to mice through oral gavage. Vehicle groups received same volume of 0.9% NaCl.
Doses have been calculated taking into account that used in the study conducted in healthy humans (Li et al., Br J Clin Pharmacol 2011, 73:706-716). […] Estimating an average weight of 60 kg for an adult human the daily dose equals to 0.0083 mg/kg. This dose was very similar to that used in our first 8 week-long treatment with PF-04457845 in ASMko mice, which according to the formulas to calculate equivalence between humans and mice (Nair and Jacob J Basic Clin Pharma 2016, 7:27-31) corresponded to a daily HED dose of 0.0072 mg/kg. For this toxicity study we agreed to take into account the human dose: 0.0083 mg/kg. Formula conversion to mouse dose: HED (mg/kg)=Mouse dose (mg/kg)×mouseKm/Human Km).

[1] = system: permeabilized ASMko neurons; test: Lysenin staining of SM in intracellular compartments of permeabilized ASMko neurons; assay type: cell-based, mouse; conditions: 1 hour at 50 μM (FIG. 9)
Method: Statistical significance Student's t-test, *P<0.05, n=3 independent cultures.
To determine whether SM hydrolysis induced by FAAH inhibitors was taking place not only at the cell surface, but also in intracellular compartments, we performed staining with lysenin, a worm toxin that specifically binds to SM, in permeabilized ASMko neurons non-treated or treated with anandamide, URB, PF-04457845 or JNJ for 1 hour at 50 μM.

ASMko cultured neurons [2] = test: MAP2 immunofluorescence of dendrites in ASMko cultured neurons; assay type: cell-based, mouse; conditions: 50 μM for 1 hour
[3] = in vivo; cited from earlier work
wt and ASMko mice [4] = test: Weekly body weight during 8-week oral treatment; assay type: in vivo, mouse; conditions: 0.3 mg/kg oral gavage every three days, 8 weeks
Method: We divided wt and ASMko into four groups: wt, wt+FAAHi, ASMko, ASMko+FAAHi. Each group included 14 animals with females and males in equal proportions.
(§2) Treatment started at 7 weeks of age and continued for 8 weeks. PF-04457845 was dissolved in 0.9% NaCl and delivered through oral gavage at a dose of 0.3 mg/kg every three days. We chose this dose based on the studies published by Ahn et al., (J Pharm Exp Ther 2011). Control groups received same volume of 0.9% NaCl without PF-04457845.
Behavioral analyses were performed in the last 2 weeks of treatment while still administering the drug. Then, half of the mice were sacrificed for biochemical and histological analysis and the other half continued receiving the treatment to monitor life span.

[5] = cited from earlier work
microglia = test: Acute toxicity: brain inflammation by iba-1 immunofluorescence (microglia numbers); assay type: in vivo, mouse; conditions: ASMko mice
Source text: FIGS. 29A-29C show representative images of immunofluorescence against ibal, a marker for microglia, which is used as a readout for inflammation. FIGS. 29A-29C show ibal expression in hippocampus (FIG. 29A), cerebellum (FIG. 29B), and cortex (FIG. 29C), respectively, of wt and ASMko mice treated with PF-04457845 at the indicated doses or with vehicle.
as §1
Inflammation was analyzed in different brain areas (hippocampus, cerebellum and cortex) by immunofluorescence against the microglia marker iba-1. Under inflammatory conditions the number of microglia increases. Confirming high inflammation in the brain of vehicle-treated ASMko mice, microglia numbers increased compared to wt mice in all areas (FIGS. 29A-29C).

ASMko cultured neurons [6] = test: TUNEL assay of neuronal death in ASMko cultured neurons; assay type: cell-based, mouse; conditions: 50 μM for 1 hour
Method: FIG. 10B is a graph showing mean±SEM percentage of apoptotic cells, measured by TUNEL assay, with respect to the positive control in which the cells were treated with H202.
The percentage of dying neurons showing DNA fragmentation was 5-8% in the treated ASMko cultures similar to the non-treated ones.

wt and ASMko mice [7] = test: Y maze test (hippocampal dependent memory); assay type: in vivo, mouse; conditions: 0.3 mg/kg every three days
Method: FIGS. 13A-13C show the effect of PF-04457845 treatment on various behavioral functions. […] (n=14; **p<0.01, *p<0.05).
as §2
Hippocampal dependent memory was monitored by the Y maze test (FIG. 13A). During the first training trial (8 min) the mice were only allowed to explore two arms (the initial arm and one other arm), maintaining the third arm (novel arm) closed. After 1 hour, the mice were placed back in the same starting arm with free access to all three arms for 5 min.
The time spent in the novel arm was counted and expressed as a percentage of the total exploration time. Non-treated ASMko mice spent less time in the novel arm than wt mice, indicative of impaired memory.

## O=C(Nc1cccnn1)N1CCC(=Cc2cccc(Oc3ccc(C(F)(F)F)cn3)c2)CC1 [PF-04457845]
Wt or ASMko mice
  adverse effects (abnormal behavior, weight loss, motor anomalies, skin alterations): No evident adverse effects
[1]
  SM levels in intracellular compartments (lysenin staining): significantly reduced SM levels
ASMko cultured neurons [2]
  morphology, length, appearance of dendrites (MAP2): did not alter the morphology, length or homogeneous appearance of dendrites
[3]
  brain blood barrier crossing: can cross the brain blood barrier
Wt and ASMko mice [4]; ASMko mice
  body weight gain: significantly improved
Wt and ASMko mice [4]; wt mice
  body weight gain: not affected
[5]; Ahn et al., 2011
  doses that seem to be safe in rodents: up to 10 mg/kg
[5]; Ahn et al., J Pharm Exp Ther 2011
  selectivity: exceptional selectivity
[5]; rodents, Ahn et al. 2011
  duration of action in vivo: long duration of action
  pharmacokinetic properties: optimal pharmacokinetic properties
microglia; single dose 0.1 mg/kg
  microglia numbers in hippocampus, cerebellum and cortex: did not significantly alter microglia numbers
microglia; single dose 1 mg/kg
  microglia numbers in hippocampus, cerebellum and cortex: remarkably reduced microglia numbers to levels similar to wt mice
microglia; single dose 5 mg/kg
  microglia numbers in hippocampus, cerebellum and cortex: remarkably reduced microglia numbers to levels similar to wt mice
ASMko cultured neurons [6]
  neuronal death as assessed by TUNEL: did not induce neuronal death
Wt and ASMko mice [7]; ASMko mice
  time in the novel arm of Y maze (memory): restored memory function
Wt and ASMko mice [7]; wt mice
  time in the novel arm of Y maze, treated versus non-treated: No differences
